For test [1], the system named is Pyricularia grisea. The test can be described thus: Antifungal activity against Magnaporthe grisea infected rice plant after 5 days relative to control. The arrangement: concentration or dose not given beside the values. In kind it is functional.
The subject of test [2] is Pyricularia grisea. The test can be described thus: Antifungal activity against Magnaporthe grisea infected rice plant assessed as logarithm of fungal control value at 100 ppm after 5 days. In kind it is functional.

Drawing on ChEMBL document CHEMBL1142346, “Quantitative structural-activity relationship (QSAR) study for fungicidal activities of thiazoline derivatives against rice blast” (2008), this text covers Activity for 29 molecules.

Molecules are shown by their SMILES.

`CN(C(=O)Cc1cs/c(=N\c2ccc(F)cc2)n1C)c1ccccc1`: the Activity with Pyricularia grisea [1] is listed as 0%. The molecule `CN(C(=O)Cc1cs/c(=N\c2ccc(C(F)(F)F)cc2)n1C)c1ccccc1` gave an Activity with Pyricularia grisea [1] of 0%. In turn, `CCc1ccc(NC(=O)Cc2cs/c(=N\c3ccc(OC)cc3)n2CCO)cc1` displayed an Activity with Pyricularia grisea [1] of 75%.

In the test with Pyricularia grisea [1], `CN(C(=O)Cc1cs/c(=N\c2ccc(Oc3ccccc3)cc2)n1C)c1ccccc1` returned an Activity of 0%. On to `COc1ccc(/N=c2\scc(CC(=O)Nc3ccc(Cl)cc3)n2CCO)cc1`, for which the Activity in the test on Pyricularia grisea [1] came out at 10%. Molecule `CN(C(=O)Cc1cs/c(=N\c2ccc(C#N)cc2)n1C)c1ccccc1` showed an Activity in the test with Pyricularia grisea [1] of 25%. On the same count and under the same terms, with `COc1ccc(NC(=O)Cc2cs/c(=N\c3ccc([N+](=O)[O-])cc3)n2C)cc1` the figure was 99%; with `CN(C(=O)Cc1cs/c(=N\c2cc(Cl)cc(Cl)c2)n1C)c1ccccc1`, 8%. On to `CCc1ccc(NC(=O)Cc2cs/c(=N\c3ccc(C#N)cc3)n2CCO)cc1`, for which, in the test on Pyricularia grisea [1], the Activity came out at 86%. `CN(C(=O)Cc1cs/c(=N\c2cccc(F)c2)n1C)c1ccccc1` gave an Activity in the test with Pyricularia grisea [1] of 0%. As for `COc1ccc(NC(=O)Cc2cs/c(=N\c3ccc([N+](=O)[O-])cc3)n2CCO)cc1`, the Activity in the test with Pyricularia grisea [1] was determined as 20%. Turning to `CCc1ccc(NC(=O)Cc2cs/c(=N\c3ccc(OC)cc3)n2C)cc1`, the results for the Activity in the test with Pyricularia grisea [2] and in the test on Pyricularia grisea [1] were 1.99 and 98%, respectively. The molecule `CN(C(=O)Cc1cs/c(=N\c2ccc(Br)cc2)n1C)c1ccccc1` displayed an Activity in the test on Pyricularia grisea [1] of 0%.

For the molecule `CCc1ccc(NC(=O)Cc2cs/c(=N\c3ccc(C#N)cc3)n2C)cc1`, the Activity in the test with Pyricularia grisea [1] was determined as 93%. On to `Cn1c(CC(=O)Nc2ccc(Br)cc2)cs/c1=N\c1ccc(Oc2ccccc2)cc1`, for which the Activity in the test on Pyricularia grisea [1] was 98%. Take `COc1ccc(/N=c2\scc(CC(=O)Nc3ccc(Cl)cc3)n2C)cc1`: the Activity with Pyricularia grisea [1] worked out at 83%. On to `CN(C(=O)Cc1cs/c(=N\c2ccc(F)cc2F)n1C)c1ccccc1`, for which the Activity with Pyricularia grisea [1] was 0%. As to `O=C(Cc1cs/c(=N\c2ccc(Oc3ccccc3)cc2)n1C1CC1)Nc1ccc(Br)cc1`, in the test with Pyricularia grisea [1], the Activity amounted to 16%. With `CCOc1ccc(NC(=O)Cc2cs/c(=N\c3ccc(F)cc3F)n2C)cc1`, in the test on Pyricularia grisea [2], the Activity was found to be 1.9.

Turning to `Cn1c(CC(=O)Nc2ccc([N+](=O)[O-])cc2)cs/c1=N/c1ccc(C#N)cc1`, in the test on Pyricularia grisea [2], the Activity turned out to be 0.7.

As to `CCc1ccc(/N=c2\scc(CC(=O)Nc3ccc(OC)cc3)n2C)cc1`, in the test on Pyricularia grisea [2], the Activity came to 1.98. With `Cn1c(CC(=O)Nc2ccc(OC(F)(F)F)cc2)cs/c1=N\c1cccc(F)c1`, the Activity in the test on Pyricularia grisea [2] is on record as 1.62. On to `CC(C)c1ccc(NC(=O)Cc2cs/c(=N/c3ccc(C(F)(F)F)cc3)n2C)cc1`, for which the Activity in the test on Pyricularia grisea [2] is given as 1.8. `Cc1ccc(NC(=O)Cc2cs/c(=N/c3ccc(Br)cc3)n2C)cc1`: the Activity with Pyricularia grisea [2] is recorded as 1.94. The same measure, in the same setting: with `CC(C)Oc1ccc(/N=c2/scc(CC(=O)Nc3ccc(C(F)F)cc3)n2C)cc1` the figure was 1.7; with `CCCCOc1ccc(NC(=O)Cc2cs/c(=N/c3ccc(C(F)(F)F)cc3)n2C)cc1`, 1. Turning to `CCOc1ccc(NC(=O)Cc2cs/c(=N\c3ccc(F)c(Cl)c3)n2C)cc1`, in the test with Pyricularia grisea [2], the Activity is on record as 1.94. Turning to `Cn1c(CC(=O)Nc2ccc(Br)cc2)cs/c1=N\c1cccc(F)c1`, the Activity in the test with Pyricularia grisea [2] was determined as 1.9. Consider `Cc1ccc(NC(=O)Cc2cs/c(=N\c3ccccc3F)n2C)cc1`, for which the Activity with Pyricularia grisea [2] is reported as 1.94.
